Results on six compounds are retold here after EP0106060A2, “Imidazole derivatives and salts thereof, their synthesis, and pharmaceutical formulations” (THE WELLCOME FOUNDATION LIMITED, priority 1982, dated 1984).

≈ marks a conversion by molar mass, not a printed value. Counter-ions that a name gives are not always drawn.

Assay [1] deals with Thromboxane A2 Synthetase. Description: Determination of thromboxane A2 synthetase inhibitory activity (lysed horse platelets, [1-14C]-arachidonic acid conversion, TLC/scintillation counting). The format is biochemical. The settings on record: concentration of active compound required to reduce the enzyme activity by 50%; horse platelet lysate, 3 min at 37°C. On the procedure: The active compound was dissolved in a suitable solvent at a concentration of 5 mg/ml, and 20 µl added to 0.8 ml of 100 mM Tris buffer (pH 7.5). The platelets from 5 ml of horse PRP were centrifuged and resuspended in 100µl of Tris buffer. After lysis by sonication or freeze thawing, the platelet suspension was added to the solution of active compound and equilibrated for 5 min at room temperature. Then 300 ng (50 nCi) of [1-^14C]-arachidonic acid, dissolved in 100 µl Tris buffer, was added and the mixture incubated for 3 min at 37°C. The reaction was stopped with 50 ul 2N HCl and the products extracted with 1.5 volumes ethyl acetate by whirling for 30 seconds. 1 ml saturated NaCl was added to the aqueous phase to prevent emulsion formation. […] The plate was developed in chloroform, methanol, acetic acid, water (90:8:1:0.8), dried and then visualised by autoradiography for 2-3 days. […] The concentration of active compound required to reduce the enzyme activity by 50% (ED50) was established.

Assay [2] deals with Thromboxane A2 Synthetase. Put plainly: Duration of action of thromboxane A2 synthetase inhibitors in vivo (oral dosing, thromboxane A2 in serum of clotted blood by RIA). Also on record: species or system N.Z. male rabbits. The settings on record: rabbit, period over which thromboxane A2 concentration is depressed relative to controls. On the procedure:
N.Z. male rabbits weighing 2.5 kg are anaesthetized with sodium pentobarbitone and chloralose and one carotoid artery is cannulated. Blood samples (lml) are taken for incubation; two as controls and one, adding 10 µg indomethacin, as a blank. After each sample is taken the cannula is flushed with saline. The active compound is then administered orally and further samples at half hour intervals for five to eight hours. The blood samples for the controls and the active compound are incubated in glass tubes for 45 minutes at 37°C to clot the blood. Indomethacin is added and the tubes centrifuged to separate the serum which is pipetted off for RIA analysis to determine the concentration of thromboxane A2. The period of time over which the inhibitor depressed the concentration of thromboxane A2 relative to the controls is then determined.

`Cl.O=C(O)c1ccc(Cn2ccnc2)c(Cl)c1` [Example 1, 1-(4-Carboxy-2-chlorobenzyl)imidazole hydrochloride] showed an ED50 in assay [1] of 6.6 µg/mL. The duration of action entry in assay [2] (dose of 160 mg/kg) is listed as “at least 5 hours”. In turn, `CCOC(=O)/C=C/c1ccc(Cn2ccnc2)c(Cl)c1` [Example 2, Ethyl (E)-3-[3-chloro-4-(imidazol-1-ylmethyl)phenyl]prop-2-enoate] yielded an ED50 in assay [1] of 0.5 µg/mL (≈ 1.72 µM). Take `Cl.O=C(O)/C=C/c1ccc(Cn2ccnc2)c(Cl)c1` [Example 3, (E)-3-[3-Chloro-4-(imidazol-1-ylmethyl)phenyl] prop-2-enoic acid hydro chloride]: the ED50 in assay [1] worked out at 0.05 µg/mL. Besides, the duration of action result in assay [2] (dose of 2 mg/kg) was “at least 7 hours”. As for `O=C(O)CCc1ccc(Cn2ccnc2)c(Cl)c1` [Example 4, 3-[3-Chloro-4-(imidazol-1-ylmethyl)phenyl]proeanoic acid hydrochloride], the ED50 in assay [1] was determined as 0.08 µg/mL. On the same count and under the same terms, next, `Cl.O.O=C(O)C=Cc1ccc(Cn2ccnc2)c(Br)c1` [Example 6, 3-[3-Bromo-4-(imidazol-1-ylmethyl)phenyl]prop-2-enoic acid hydrochloride hydrate]: 0.015 µg/mL. On the same count and under the same terms, next, `O=C(O)c1ccc(C=CCn2ccnc2)cc1Cl` [Example 10, 1-[3-(4-Carboxy-3-chlorophenyl)prop-2-enyl]imidazole hydrochloride hemihydrate]: 0.35 µg/mL.
